# Measured values published in publication PMC5049785, “Characterization of Novel Antimalarial Compound ACT-451840: Preclinical Assessment of Activity and Dose–Efficacy Modeling” (PLoS Medicine, 2016).
# Like-named read-outs stand apart in the source and are kept apart here.
# Columns and labels:
# [1] = system: P. falciparum clinical isolates (Papua, Indonesia); assay: Ex vivo drug susceptibility, P. falciparum clinical isolates; assay type: cell-based, Plasmodium falciparum; details: Plasmodium falciparum, read-out: median IC50
# Method: (§1) […]. Thick blood films made from each well were stained with 5% Giemsa solution for 30 min and examined microscopically. The number of schizonts per 200 asexual-stage parasites was determined for each drug concentration and normalized to the control well.
# [2] = system: P. vivax clinical isolates (Papua, Indonesia); assay: Ex vivo drug susceptibility, P. vivax clinical isolates; assay type: cell-based, Plasmodium vivax; details: Plasmodium vivax, read-out: median IC50
# Method: as §1
# [3] = system: P. falciparum K1 (Thailand); assay: [3H]-hypoxanthine incorporation assay, K1; assay type: cell-based, Plasmodium falciparum; details: Plasmodium falciparum
# [4] = system: P. falciparum 7G8 (Brazil); assay: [3H]-hypoxanthine incorporation assay, 7G8; assay type: cell-based, Plasmodium falciparum; details: Plasmodium falciparum
# [5] = system: P. falciparum TM90C2A (Thailand); assay: [3H]-hypoxanthine incorporation assay, TM90C2A; assay type: cell-based, Plasmodium falciparum; details: Plasmodium falciparum
# [6] = system: P. falciparum V1/S (Vietnam); assay: [3H]-hypoxanthine incorporation assay, V1/S; assay type: cell-based, Plasmodium falciparum; details: Plasmodium falciparum, read-out: 50% inhibitory concentration (IC50)
# [7] = system: P. falciparum D6 (Sierra Leone); assay: [3H]-hypoxanthine incorporation assay, D6; assay type: cell-based, Plasmodium falciparum; details: Plasmodium falciparum
# Cam3.II^C580Y parasites = assay: microbe, parasite or virus in culture; assay type: cell-based, P. falciparum; details: for IC50: Plasmodium falciparum, 72 h
# Method: (§2) Parasites were cultured at Columbia University Medical Center (New York, USA) as previously described (1). Cam3.II and V1/S parasites, which had been genetically engineered to express K13 wild-type or K13 C580Y were seeded in a 96-well plate at 0.2% parasitemia and 1% hematocrit (2). […] Parasites were then stained with SYBR Green I (Invitrogen) and MitoTracker Deep Red (ThermoFisher Scientific) for 20 minutes at 37 °C (3). Stained parasites were detected using a BD Accuri 6 Flow Cytometer, and analyzed using FlowJo Software. IC50 values were determined by nonlinear regression using GraphPad Prism 6.0. For statistical analyses, Student’s t-tests were performed, and significance was set at P < 0.05.
# (§3) Values indicate mean ± SEM, shown in nM. Significance determined by Student's t-test against parental lines.
# [8] = system: Cam3.II^rev parasites (K13 wild-type); assay: microbe, parasite or virus in culture; assay type: cell-based, P. falciparum; details: for IC50: Plasmodium falciparum, 72 h
# Method: as §2, §3
# [9] = system: GFP-transfected P. berghei ANKA strain; assay: In vivo efficacy, P. berghei mouse model; parameters: species or system Plasmodium berghei in female NMRI mice; details: 100 mg/kg quadruple-dose regimen
# Method: In vivo efficacy against P. berghei was conducted at the Swiss TPH as previously described, with the modification that female NMRI mice from Harlan (Horst, The Netherlands) (n = 3) were infected with a GFP-transfected P. berghei ANKA strain (kindly donated by A. P. Waters and C. J. Janse, Leiden University Medical Center, The Netherlands) and parasitemia was determined using standard flow cytometry techniques. ACT-451840 was dissolved or suspended in corn oil before dosing and administered 24 h after infection (single-dose regimen) or 24, 48, and 72 h after infection (triple-dose regimen). With the single-dose regimen, blood was collected on Day 3 (72 h after infection). Samples for the triple-dose regimens were collected on Day 4 (96 h after infection). Antimalarial activity was calculated as the difference between the mean percent parasitemia for the control and treated groups expressed as a percent relative to the control group, consisting of five mice. Control mice were euthanized on Day 4 in order to prevent death typically occurring on Day 6. For the consistency in PK/PD modeling, Day 5 instead of Day 6 was considered the day of death, because treated animals were always euthanized one day before their natural death for animal welfare reasons. Animals were considered cured if there were no detectable parasites on Day 30 post-infection. To confirm the reliability of this assumption, blood from the surviving mice in curative experiments was inoculated into uninfected mice, and no parasitemia developed in these mice even after 30 d. The antimalarial efficacy is defined either as antimalarial activity or as survival: the two readouts of the P. berghei murine model.
# [10] = system: P. falciparum NF54 strain; assay: [3H]-hypoxanthine incorporation assay, NF54; assay type: cell-based, Plasmodium falciparum; details: Plasmodium falciparum
# Method: In vitro time-, stage-, and concentration-dependent effects were assessed using pyrimethamine as a stage-specific and slow-acting control, as described elsewhere.
# [11] = system: P. falciparum W2 (Vietnam); assay: [3H]-hypoxanthine incorporation assay, W2; assay type: cell-based, Plasmodium falciparum; details: Plasmodium falciparum
# [12] = system: P. falciparum PfNF54^0230/N3; assay: In vivo efficacy, P. falciparum mouse model (GSK); details: oral quadruple-dose regimen, once a day
# Method: In vivo efficacy against P. falciparum was conducted at GSK according to the standard assay previously described. Female NODscidIL2Rγnull mice were engrafted with human erythrocytes and infected with the isolate P. falciparum PfNF54^0230/N3, a strain developed at GSK for growth in engrafted mice. […] Blood samples were collected on Days 3, 4, 5, 6, and 7 (n = 3 per time point) for parasitemia measurement by flow cytometry. Similarly, blood samples were collected at 0.5, 1, 2, 4, 6, 8, 12, 24, and 48 h after a single administration of 4.7 mg/kg of ACT-451840 to a parallel group of three P. falciparum-infected mice for PK parameters determination. Results are expressed exclusively as antimalarial activity in the P. falciparum murine model.
# [13] = system: V1/S parasites (K13 wild-type); assay: microbe, parasite or virus in culture; assay type: cell-based, P. falciparum
# Method: as §2, §3
# V1/S^C580Y parasites = assay: microbe, parasite or virus in culture; assay type: cell-based, P. falciparum
# Method: as §2, §3
# [14] = system: P. falciparum strain 3D7 (MR4); parameters: method as in PMID 16735432; details: 10 x IC50; cited from earlier work
# [15] = P. falciparum clinical isolates, n = 27 (closed symbols)
# [16] = P. vivax clinical isolates, n = 34 (open symbols)
# [17] = K1, read-out: 50% inhibitory concentration (IC50)
# [18] = 7G8, read-out: 50% inhibitory concentration (IC50)
# [19] = read-out: 50% inhibitory concentration (IC50)
# [20] = D6, read-out: 50% inhibitory concentration (IC50)
smiles,measurement,setting,value
CCN(CC)Cc1cc(Nc2ccnc3cc(Cl)ccc23)ccc1O [Amodiaquine],IC50,[1]; [15],16.8 nM
same,IC50,[2]; [16],12.3 nM
"C[C@H]1[C@H](OC(=O)CCC(=O)O)O[C@@H]2O[C@@]3(C)CC[C@H]4[C@H](C)CC[C@@H]1[C@@]24OO3 [Artesunate, artesunate]",IC50,[3]; [17],2.7 ± 0.4 nM
same,IC50,[4]; [18],1.8 ± 0.2 nM
same,IC50,[5]; [19],4.6 ± 1.7 nM
same,IC50,[6],3.2 ± 0.5 nM
same,IC50,[7]; [20],7.1 ± 1.9 nM
same,IC50,Cam3.II^C580Y parasites,6.6 ± 0.3 nM
same,IC50,[8],6.7 ± 0.7 nM
same,IC50,[1]; [15],2.6 nM
same,IC50,[2]; [16],2.9 nM
same,infected mice cured,[9],50%
"CCN(CC)CCCC(C)Nc1ccnc2cc(Cl)ccc12 (stereo not shown) [Chloroquine, chloroquine]",IC50,"[10]; NF54, read-out: 50% inhibitory concentration (IC50)",11 ± 2.1 nM
same,IC50,[3]; [17],303 ± 37 nM
same,IC50,"[11]; W2, read-out: 50% inhibitory concentration (IC50)",326 ± 38 nM
same,IC50,[4]; [18],137 ± 21 nM
same,IC50,[5]; [19],174 ± 19 nM
same,IC50,[6],458 ± 66 nM
same,IC50,[7]; [20],16 ± 1.2 nM
same,IC50,[1],101 nM
same,IC50,[2],43.9 nM
same,effective dose resulting in 90% antimalarial activity (ED90),[12],4.9 mg/kg
"OC(c1cc(C(F)(F)F)nc2c(C(F)(F)F)cccc12)C1CCCCN1 (stereo not shown) [Mefloquine, mefloquine]",IC50 fold change,Cam3.II^C580Y parasites; Cam3.II^C580Y versus Cam3.II^rev,1.2
same,IC50,Cam3.II^C580Y parasites,14 ± 0.9 nM
same,IC50 fold change,[8]; Cam3.II^rev (parental reference line),1.0
same,IC50,[8],12 ± 1.5 nM
same,IC50,"[13]; Plasmodium falciparum, 72 h",1.3 ± 0.4 nM
same,IC50 fold change,[13]; V1/S (parental reference line),1.0
same,IC50,"V1/S^C580Y parasites; Plasmodium falciparum, 72 h",0.8 ± 0.3 nM
same,IC50 fold change,V1/S^C580Y parasites; V1/S^C580Y versus V1/S,0.6
same,IC50,[1]; [15],13.4 nM
same,IC50,[2]; [16],15.2 nM
Clc1ccc2c(N3CCN(CCCN4CCN(c5ccnc6cc(Cl)ccc56)CC4)CC3)ccnc2c1 [Piperaquine],IC50,[1]; [15],25 nM
same,IC50,[2]; [16],14.8 nM
"CCc1nc(N)nc(N)c1-c1ccc(Cl)cc1 [Pyrimethamine, pyrimethamine]",IC50,"[10]; read-out: 50% inhibitory concentration (IC50), NF54, no resistance, mean ± SD, n = 3",18 ± 0.8 nM
same,IC50,"[3]; read-out: 50% inhibitory concentration (IC50), K1, resistance CQ, SUL, PYR, CYC, mean ± SD",10100 nM
same,IC50,"[11]; read-out: 50% inhibitory concentration (IC50), W2, resistance CQ, SUL, PYR, CYC, mean ± SD",13900 nM
same,IC50,"[4]; read-out: 50% inhibitory concentration (IC50), 7G8, resistance CQ, PYR, CYC, mean ± SD",10500 nM
same,IC50,"[5]; read-out: 50% inhibitory concentration (IC50), resistance CQ, PYR, MFQ, CYC, mean ± SD",19200 nM
same,IC50,"[6]; V1/S, resistance CQ, SUL, PYR, CYC, mean ± SD",21900 nM
same,IC50,"[7]; read-out: 50% inhibitory concentration (IC50), D6, resistance MFQ, mean ± SD",5.4 ± 1.3 nM
C[C@@H]1CC[C@H]2[C@@H](C)C(=O)O[C@@H]3O[C@@]4(C)CC[C@@H]1[C@]32OO4 [artemisinin],parasite clearance time to kill 99.9% of the initial population,[14],less than 24 h
O=C1C(O)=C([C@H]2CC[C@H](c3ccc(Cl)cc3)CC2)C(=O)c2ccccc21 [atovaquone],lag phase in the killing curve,[14],48 h
